Converted amounts (≈) assume the structure as drawn. A value given as a limit tells only on which side of the number the result lay.

One may read the MIC as the lowest concentration that inhibits growth of the organism.

Common to all, as to assay: MIC measurement, YAG medium
Type in all cases: cell-based

The subject of one test is Aspergillus terreus AT49. The note with it: Aspergillus terreus, MIC banded into grades, strain AT49, read-out: MIC A. terreus 49. The method, then: (§1) Between 1 and 5 mgs of compound were accurately weighed out into a sterile Eppendorf tube. The compound was dissolved in DMSO to give a solution containing […]. Tubes were stored at −20° C. until required.
(§2) On the day of testing thawed solutions were vortex mixed to ensure homogeneity. 30 μL of solution was removed and added to 570 μL of sterile water in a separate sterile Eppendorf. The thoroughly mixed solution was used to prepare a series of doubling dilutions in water, in a deep well plate. Thirteen replicate plates were prepared using a Minitrak by aspirating 20 μL from each well into eleven clear polystyrene 96 well plates.
(§3) Spores of Aspergillus spp. (Aspergillus fumigatus [two strains], Aspergillus terreus [two strains], Aspergillus niger and Aspergillus flavus) were harvested from cultures grown on Sabarauds agar for 5 days, and resuspended in PBS/Tween 80 to approx 1×10^7 cfu/mL. Other filamentous fungi (Absidia corymbifera, Fusarium solani, Rhizomucor, Scedosporium spp., Trichophyton spp.), were grown on Sabarauds agar for 2-10 days and spores/hyphae resuspended in PBS/Tween to give approx 1×10^7 cfu/mL. Candida species (Candida albicans, Candida glabrata, Candida krusei, Candida parapsilosis and Candida tropicalis) were grown on Sabarauds agar, cells were harvested from the agar using a sterile loop and resuspended in PBS/Tween 80 to approx 1×10^6 cfu/mL. Each organism suspension was diluted in RPMI medium, containing 2% glucose and 0.135 M MOPS buffer (pH 7.0) to 0.5-2×10^4 cfu/mL for Aspergillus spp. and other filamentous fungi and 0.5-2×10^3 cfu/mL for yeast. 80 μL of an organism suspension was added to each well of the plate containing drug dilutions.
(§4) This produced MIC plates with a drug range 50-0.05 mg/L and organism inocula of 1-2×10^4 cfu/mL for Aspergillus spp. and other filamentous fungi and 1-2×10^3 cfu/mL for yeasts. All plates were incubated for 24-48 hrs at 35° C. Growth was assessed by monitoring the optical density at 485 nm for each well. The MIC of a compound is the lowest drug concentration that inhibits growth of an organism by >80% compared with a drug free control. MICs are recorded as mg/L. Other growth media can be used for susceptibility testing, and the activity of the described compounds can also be assessed in a medium comprising 1% glucose, 1% ammonium chloride and 0.5% yeast extract (YAG medium). To perform MIC tests in this medium, dilutions of compounds are prepared in microtitre plates as described above. Fungal strains to be tested are grown and harvested in an identical manner to that described above, each organism suspension is then diluted in YAG medium to 0.5-2×10^4 cfu/mL for Aspergillus spp. and other filamentous fungi and 0.5-2×10^3 cfu/mL for yeast. 80 μL of an organism suspension was added to each well of the plate containing drug dilutions. This produced MIC plates with a drug range 50-0.05 mg/L and organism inocula of 1-2×10^4 cfu/mL for Aspergillus spp. and other filamentous fungi and 1-2×10^3 cfu/mL for yeasts. All plates were incubated for 24 hrs at 35° C. Growth was assessed by monitoring the optical density at 485 nm for each well. The MIC of a compound is the lowest drug concentration that inhibits growth of an organism by >70% compared with a drug free control. MICs are recorded as mg/L. In cases where the MIC of an organism is […] mg/L the MIC is repeated using a concentration range of 0.5-0.0005 mg/L. MIC tests in YAG medium have more clear-cut endpoints and have slightly lower MICs than those performed in RPMI medium.
(§5) The following organisms were tested: Absidia corymbifera, Aspergillus flavus, Aspergillus fumigatus AF293 and AF210, Aspergillus niger, Aspergillus terreus AT4 and AT49, Candida albicans, Candida glabrata, Candida krusei, Candida parapsilosis, Candida tropicalis, Fusarium solani, Rhizomucor sp., Scedosporium apiospermum, Scedosporium prolificans, Trichophyton mentagrophytes, and Trichophyton rubrum.

In another test the test system is Aspergillus terreus. Conditions: Aspergillus terreus, MIC banded into grades, strain not named in head (AT4). The method, then: as §1, §2, §3, §4, §5
Test [1] concerns Aspergillus fumigatus AF210. The note with it: Aspergillus fumigatus, MIC banded into grades, strain AF210, read-out: MIC A. fumigatus 210. The method, then:
as §1, §2, §3, §4, §5

Another test concerns Aspergillus niger. The note with it: Aspergillus niger, MIC banded into grades. The method, then:
as §1, §2, §3, §4, §5

Another test deals with Aspergillus flavus. The note with it: Aspergillus flavus, MIC banded into grades, lowest concentration inhibiting growth by >70%. As to the method: as §1, §2, §3, §4, §5
In a further test the test system is Aspergillus fumigatus. Conditions: Aspergillus fumigatus; YAG medium; MIC banded into grades; strain AF293; read-out: MIC A. fumigatus. The method, then: as §1, §2, §3, §4, §5

As to `CCn1ccnc1Cc1ccc(NC(=O)C(=O)c2c(-c3ccccc3C)cc3ccccn23)cc1` [Example 30, N-[4-(3-Ethyl-1H-imidazol-2ylmethyl)-phenyl]-2-oxo-2-(2-o-tolyl-indolizin-3yl)-acetamide], the MIC (in the test with Aspergillus terreus AT49; with Aspergillus terreus; in test [1]; with Aspergillus niger; in the test on Aspergillus flavus; with Aspergillus fumigatus) was over 10 µg/mL in each case.

For `CC(C)c1nccn1CCOC(=O)C(C)(C)c1ccc(NC(=O)C(=O)c2c(-c3ccccc3)cc3ccccn23)cc1` [Example 18, 2-methyl-2-{4-[2-oxo-2-(2-phenyl-indolizin-3-yl)-acetylamino]-phenyl}-propionic acid 2-(2-isopropyl-imidazol-1-yl)-ethyl ester], in the test with Aspergillus fumigatus, the MIC was over 10 µg/mL.

For `O=C(Nc1ccc(N2CCN(c3cc(OCCO)ccn3)CC2)cc1)C(=O)c1c(-c2ccccc2)cc2ccccn12` [Example 89, N-(4-{4-[4-(2-Hydroxy-ethoxy)-pyridin-2-yl]-piperazin-1-yl}-phenyl)-2-oxo-2-(2-phenyl-indolizin-3-yl)-acetamide], in the test on Aspergillus fumigatus, the MIC fell in the range of 1 to 10 µg/mL (≈ 1.78 to 17.8 µM). As to `O=C(Nc1ccccc1F)C(=O)c1c(-c2ccccc2)cc2ccc3ccccc3n12` [Example 4, N-(2-fluoro-phenyl)-2-oxo-2-(2-phenyl-pyrrolo[1,2-a]quinolin-1-yl)-acetamide], the MIC in the test with Aspergillus fumigatus is over 10 µg/mL. As to `Cc1cc(N2CCN(c3ccc(NC(=O)C(=O)c4c(-c5ccccc5)cc5ccccn45)cc3)CC2)cc(C)n1` [Example 52, N-{4-[4-(2,6-Dimethyl-pyridin-4-yl)-piperazin-1-yl]-phenyl}-2-oxo-2-(2-phenyl-indolizin-3-yl)-acetamide], the MIC in the test on Aspergillus fumigatus is over 10 µg/mL. `CS(=O)(=O)NC(=O)c1ccc(NC(=O)C(=O)c2c(-c3ccccc3)cc3ccccn23)cc1` [Example 5, N-(4-methanesulfonylaminocarbonyl-phenyl)-2-oxo-2-(2-phenyl-indolizin-3-yl)-acetamide]: the minimum inhibitory concentration (MIC) in the test on Aspergillus fumigatus was over 10 µg/mL.

In the case of `Cc1cc(C)nc(CCCCc2ccc(NC(=O)C(=O)c3c(-c4ccccc4)cc4ccccn34)cc2)c1` [Example 72, N-{4-[4-(4,6-Dimethyl-pyridin-2-yl)-butyl]-phenyl}-2-oxo-2-(2-phenyl-indolizin-3-yl)-acetamide], the MIC in the test with Aspergillus fumigatus was under 1 µg/mL. As to `Cc1nccn1CCCOc1ccc(NC(=O)C(=O)c2c(-c3ccccc3)cc3ccccn23)cc1C(C)C` [Example 20, N-{3-Isopropyl-4-[3-(2-methyl-imidazol-1-yl)-propoxy]-phenyl}-2-oxo-2-(2-phenyl-indolizin-3-yl)-acetamide], the MIC in the test on Aspergillus fumigatus fell in the range of 1 to 10 µg/mL (≈ 1.92 to 19.2 µM). On to `Cc1cc(C)nc(N2CCN(c3ccc(NC(=O)C(=O)c4c(-c5ccccc5)cc5ccccn45)cc3C)CC2)c1` [Example 82, N-{4-[4-(4,6-Dimethyl-pyridin-2-yl)-piperazin-1-yl]-3-methyl-phenyl}-2-oxo-2-(2-phenyl-indolizin-3-yl)-acetamide], for which the MIC in the test with Aspergillus fumigatus is under 1 µg/mL. Still for that read-out and setting: in the case of `O=C(Nc1ccc(N2CCS(=O)(=O)CC2)cc1)C(=O)c1c(-c2ccccc2)cc2ccccn12` [Example 1, N-[4-(1,1-Dioxo-1λ^6-thiomorpholin-4-yl)-phenyl]-2-oxo-2-(2-phenyl-indolizin-3-yl)-acetamide] it was over 10 µg/mL; in that of `Cc1cc(C)nc(N2CCN(c3cccc(NC(=O)C(=O)c4c(-c5ccccc5)cc5ccccn45)c3)CC2)c1` [Example 48, N-{3-[4-(4,6-Dimethyl-pyridin-2-yl)-piperazin-1-yl]-phenyl}-2-oxo-2-(2-phenyl-indolizin-3-yl)-acetamide], under 1 µg/mL. Same read-out and setting: the figure for `Cc1cc(C)nc(NCCN(C)c2ccc(NC(=O)C(=O)c3c(-c4ccccc4)cc4ccccn34)cc2)c1` [Example 69, N-(4-{[2-(4,6-dimethyl-pyridin-2-ylamino)-ethyl]-methyl-amino}-phenyl)-2-oxo-2-(2-phenyl-indolizin-3-yl)-acetamide] is under 1 µg/mL; for `O=C(Nc1ccc(N2CCN(c3cccc(CCO)n3)CC2)cc1)C(=O)c1c(-c2ccccc2)cc2ccccn12` [Example 88, N-(4-{4-[6-(2-hydroxy-ethyl)-pyridin-2-yl]-piperazin-1-yl}-phenyl)-2-oxo-2-(2-phenyl-indolizin-3-yl)-acetamide] it is under 1 µg/mL; for `O=C(Nc1ccc(-c2cocn2)cc1)C(=O)c1c(-c2ccc(-c3ccccc3)cc2)cc2ccccn12` [Example 85, 2-(2-Biphenyl-4-yl-indolizin-3-yl)-N-(4-oxazol-4-yl-phenyl)-2-oxo-acetamide] it is over 10 µg/mL. Still for that read-out and setting: the figure for `Cc1ccc(N2CCN(c3ccc(NC(=O)C(=O)c4c(-c5ccccc5)cc5ccccn45)cc3)CC2)nc1` [Example 74, N-{4-[4-(5-Methyl-pyridin-2-yl)-piperazin-1-yl]-phenyl}-2-oxo-2-(2-phenyl-indolizin-3-yl)-acetamide] is under 1 µg/mL. Turning to `COCc1cc(N2CCN(c3cc(C)cc(C)n3)CC2)ccc1NC(=O)C(=O)c1c(-c2ccccc2)cc2ccccn12` [Example 83, N-{4-[4-(4,6-Dimethyl-pyridin-2-yl)-piperazin-1-yl]-2-methoxymethyl-phenyl}-2-oxo-2-(2-phenyl-indolizin-3-yl)-acetamide], the MIC in the test with Aspergillus fumigatus is under 1 µg/mL. Still for that read-out and setting: in the case of `Cc1cc(C)nc(N2CCN(c3ccc(NC(=O)C(=O)c4c(-c5ccccc5)cc5ccc(F)cn45)cc3)CC2)c1` [Example 32, N-{4-[4-(4,6-Dimethyl-pyridin-2-yl)-piperazin-1-yl]-phenyl}-2-(6-fluoro-2-phenyl-indolizin-3-yl)-2-oxo-acetamide] it was under 1 µg/mL; in that of `Cc1cc(C)nc(N2CCN(c3ccc(NC(=O)C(=O)c4c(C5CCN(C)CC5)cc5ccccn45)cc3)CC2)c1` [Example 63, N-{4-[4-(4,6-Dimethyl-pyridin-2-yl)-piperazin-1-yl]-phenyl}-2-[2-(1-methyl-piperidin-4-yl)-indolizin-3-yl]-2-oxo-acetamide], over 10 µg/mL; in that of `C=C(C)CN1CCN(c2ccc(NC(=O)C(=O)c3c(-c4ccc(N5CCOCC5)cc4)cc4ccccn34)cc2)CC1` [Example 40, N-{4-[4-(2-Methyl-allyl)-piperazin-1-yl]-phenyl}-2-[2-(4-morpholin-4-yl-phenyl)-indolizin-3-yl]-2-oxo-acetamide], over 10 µg/mL. Still for that read-out and setting: the figure for `CCC(CC)N1CCN(c2ccc(NC(=O)C(=O)c3c(-c4ccccc4Cl)cc4ccccn34)cn2)CC1` [Example 10, 2-[2-(2-chloro-phenyl)-indolizin-3-yl]-N-{6-[4-(1-ethyl-propyl)-piperazin-1-yl]-pyridin-3-yl}-2-oxo-acetamide] is under 1 µg/mL; for `Cc1cc(C)nc(N2CCN(c3ccc(NC(=O)C(=O)c4c(-c5ccccc5)cc5ccccn45)cc3)CC2)n1` [Example 44, N-{4-[4-(4,6-Dimethyl-pyrimidin-2-yl)-piperazin-1-yl]-phenyl}-2-oxo-2-(2-phenyl-indolizin-3-yl)-acetamide] it is under 1 µg/mL; for `O=C(Nc1ccc(N2CCN(c3ccc(CN4CCOCC4)cc3)CC2)cc1)C(=O)c1c(-c2ccccc2)cc2ccccn12` [Example 56, N-{4-[4-(4-Morpholin-4-ylmethyl-phenyl)-piperazin-1-yl]-phenyl}-2-oxo-2-(2-phenyl-indolizin-3-yl)-acetamide] it is under 1 µg/mL.

The values are drawn from patent US8604029B2, “2-[(2-substituted)-indolizin-3-yl]-2-oxo-acetamide derivatives as antifungal agents” (F2G Ltd British Body Corporate, priority 2006, dated 2013).
